Measurements from ChEMBL document CHEMBL1781926, “Synthesis of 1-naphtylpiperazine derivatives as serotoninergic ligands and their evaluation as antiproliferative agents” (Eur J Med Chem, 2011).
Active and inactive are the calls of the source. The calls are words filed in the database; no cut-off is given here.

Legend:
PC-3 [1] = test: Cell cycle arrest in human PC3 cells assessed as accumulation at S phase at 2 uM after 48 hrs using propidium iodide staining by flow cytometry (reference value: 38.16 %); assay type: functional
PC-3 [2] = test: Induction of apoptosis in human PC3 cells at 2 uM after 48 hrs using propidium iodide staining by flow cytometry (reference value: 0.84 %); assay type: functional
PC-3 [3] = test: Cell cycle arrest in human PC3 cells assessed as accumulation at G1 phase at 2 uM after 72 hrs using propidium iodide staining by flow cytometry (reference value: 42.19 %); assay type: functional
PC-3 [4] = test: Inhibition of serotonin-induced MAPK phosphorylation in human PC3 cells at 2 uM after 48 hrs by Western blotting; assay type: cell-based
[5] = molecular target: RAC-alpha serine/threonine-protein kinase (Homo sapiens) (UniProt P31749); test: Inhibition of serotonin-induced AKT phosphorylation in human PC3 cells at 2 uM after 48 hrs by Western blotting; assay type: cell-based; conditions: PC-3
PC-3 [6] = test: Induction of apoptosis human PC3 cells assessed as externalization of phosphatidylserine on the outer layer of plasma membrane at 1 uM after 24 to 48 hrs using Annexin-V-FITC staining by flow cytometry; assay type: functional, cell-based
PC-3 [7] = test: Cell cycle arrest in human PC3 cells assessed as accumulation at G1 phase at 2 uM after 24 hrs using propidium iodide staining by flow cytometry (reference value: 46.97 %); assay type: functional
PC-3 [8] = test: Cell cycle arrest in human PC3 cells assessed as accumulation at G2 phase at 2 uM after 24 hrs using propidium iodide staining by flow cytometry (reference value: 18.19 %); assay type: functional
PC-3 [9] = test: Cell cycle arrest in human PC3 cells assessed as accumulation at G2 phase at 2 uM after 72 hrs using propidium iodide staining by flow cytometry (reference value: 20.18 %); assay type: functional
PC-3 [10] = test: Cell cycle arrest in human PC3 cells assessed as accumulation at S phase at 2 uM after 72 hrs using propidium iodide staining by flow cytometry (reference value: 37.73 %); assay type: functional
PC-3 [11] = test: Induction of apoptosis in human PC3 cells at 2 uM after 72 hrs using propidium iodide staining by flow cytometry (reference value: 1.79 %); assay type: functional
PC-3 [12] = test: Cell cycle arrest in human PC3 cells assessed as accumulation at S phase at 2 uM after 24 hrs using propidium iodide staining by flow cytometry (reference value: 34.84 %); assay type: functional
PC-3 [13] = test: Induction of apoptosis in human PC3 cells at 2 uM after 24 hrs using propidium iodide staining by flow cytometry (reference value: 1.27 %); assay type: functional
PC-3 [14] = test: Cell cycle arrest in human PC3 cells assessed as accumulation at G1 phase at 2 uM after 48 hrs using propidium iodide staining by flow cytometry (reference value: 54.14 %); assay type: functional
PC-3 [15] = test: Cell cycle arrest in human PC3 cells assessed as accumulation at G2 phase at 2 uM after 48 hrs using propidium iodide staining by flow cytometry (reference value: 13.36 %); assay type: functional

Sequence of RAC-alpha serine/threonine-protein kinase (Homo sapiens) (P31749 whole entry): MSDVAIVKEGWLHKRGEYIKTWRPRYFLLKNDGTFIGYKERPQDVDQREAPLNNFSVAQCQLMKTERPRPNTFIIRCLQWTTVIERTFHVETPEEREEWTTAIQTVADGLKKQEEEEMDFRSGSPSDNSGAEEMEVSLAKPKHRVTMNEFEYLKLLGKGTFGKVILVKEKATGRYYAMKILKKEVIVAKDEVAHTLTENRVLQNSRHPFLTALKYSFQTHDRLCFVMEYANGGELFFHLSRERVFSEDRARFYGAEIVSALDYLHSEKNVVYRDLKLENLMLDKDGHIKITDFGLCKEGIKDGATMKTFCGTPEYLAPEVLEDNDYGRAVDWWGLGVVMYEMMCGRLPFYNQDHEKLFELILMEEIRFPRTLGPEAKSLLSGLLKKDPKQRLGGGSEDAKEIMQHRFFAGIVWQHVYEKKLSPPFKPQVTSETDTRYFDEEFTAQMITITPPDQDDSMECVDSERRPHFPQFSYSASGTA

inhibition [5]: Active
SMILES: CC[C@@]1(O)C(=O)OCc2c1cc1n(c2=O)Cc2cc3c(CN(C)C)c(O)ccc3nc2-1 [TOPOTECAN]
Activity (PC-3 [1]): 61.76% | Activity (PC-3 [2]): 16.32% | Activity (PC-3 [3]): 0% | inhibition (PC-3 [4]): inactive | Activity (PC-3 [6]): Active | Activity (PC-3 [7]): 37.23% | Activity (PC-3 [8]): 28.86% | Activity (PC-3 [9]): 36.31% | Activity (PC-3 [10]): 63.69% | Activity (PC-3 [11]): 8.14% | Activity (PC-3 [12]): 33.91% | Activity (PC-3 [13]): 5.43% | Activity (PC-3 [14]): 19.17% | Activity (PC-3 [15]): 19.07%
